Measured values as given in ChEMBL document CHEMBL5143515, “Identification of new halogen-containing 2,4-diphenyl indenopyridin-5-one derivative as a boosting agent for the anticancer responses of clinically available topoisomerase inhibitors” (Eur J Med Chem, 2022).
Calls of active or inactive are those of the source. The calls are words filed in the database; no cut-off is given here.

Key:
[1] = Genotoxicity in human HCT-15 cells assessed as production of gamma-H2AX at 2 to 5 uM and measured in presence of 0.2 uM etoposide by western blot analysis; type: toxicity, cell-based; conditions: hct-15, 5 µM, dose 2-5 µM
[2] = Genotoxicity in human HCT-15 cells assessed as production of fragmented DNA tails at 2 to 5 uM and measured in presence of 1 nM camptothecin by comet assay; type: toxicity, cell-based; conditions: hct-15, 5 µM, dose 2-5 µM
[3] = target: DNA topoisomerase 2-alpha (Homo sapiens) (UniProt P11388); assay: Inhibition of recombinant human topoisomerase 2alpha assessed as relaxation of supercoiled plasmid pBR322 DNA at 100 uM by agarose gel electrophoresis (reference value: 82.2%)
[4] = Toxicity in mouse assessed as increase in mean corpuscular volume of RBC at 4 mg/kg administered in combination with 2 mg/kg etoposide; type: organism-based, Erythrocyte; conditions: in vivo
[5] = test system: HeLa; assay: Antiproliferative activity against human HeLa cells after 72 hrs by EZ-Cytox colorimetric assay; type: functional, cell-based
[6] = target: T1, DNA topoisomerase 1 (Homo sapiens) (UniProt P11387); assay: Inhibition of recombinant human topoisomerase 1 assessed as relaxation of supercoiled plasmid pBR322 DNA at 100 uM by agarose gel electrophoresis (reference value: 83.2%)
T1 sequence (whole entry): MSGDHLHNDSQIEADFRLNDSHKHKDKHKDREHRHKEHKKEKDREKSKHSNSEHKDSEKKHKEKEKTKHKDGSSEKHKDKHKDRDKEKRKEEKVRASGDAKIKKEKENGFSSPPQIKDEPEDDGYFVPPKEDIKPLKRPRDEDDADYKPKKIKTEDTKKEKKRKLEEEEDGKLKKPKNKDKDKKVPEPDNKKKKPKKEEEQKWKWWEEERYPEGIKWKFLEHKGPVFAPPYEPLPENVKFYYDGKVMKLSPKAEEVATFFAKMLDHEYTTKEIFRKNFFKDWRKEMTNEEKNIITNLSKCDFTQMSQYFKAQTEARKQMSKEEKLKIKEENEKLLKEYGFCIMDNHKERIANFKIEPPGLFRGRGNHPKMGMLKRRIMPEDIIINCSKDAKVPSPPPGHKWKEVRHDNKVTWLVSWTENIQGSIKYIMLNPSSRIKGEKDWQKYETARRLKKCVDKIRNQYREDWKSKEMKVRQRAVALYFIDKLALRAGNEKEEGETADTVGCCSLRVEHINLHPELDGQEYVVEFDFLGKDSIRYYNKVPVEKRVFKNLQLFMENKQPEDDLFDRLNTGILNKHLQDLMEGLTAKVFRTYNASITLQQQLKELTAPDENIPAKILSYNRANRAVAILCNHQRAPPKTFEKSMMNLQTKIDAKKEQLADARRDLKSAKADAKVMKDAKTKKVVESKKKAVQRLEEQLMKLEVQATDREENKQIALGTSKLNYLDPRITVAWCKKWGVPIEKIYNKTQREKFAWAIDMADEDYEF

[7] = Toxicity in mouse assessed as increase in d red cell distribution width at 4 mg/kg administered in combination with 2 mg/kg etoposide; type: organism-based; conditions: in vivo
[8] = Genotoxicity in human HCT-15 cells assessed as production of Ub1-gamma-H2AX at 2 to 5 uM and measured in presence of 0.2 uM etoposide by western blot analysis; type: toxicity, cell-based; conditions: hct-15, 5 µM, dose 2-5 µM
[9] = Toxicity in mouse assessed as increase in d red cell distribution width at 4 mg/kg; type: organism-based; conditions: in vivo
[10] = Toxicity in mouse assessed as reduction in number of absolute neutrophil count at 4 mg/kg in presence of 2 mg/kg etoposide; type: organism-based; conditions: in vivo
[11] = test system: Calf thymus DNA; assay: Binding affinity to calf thymus DNA assessed as DNA intercalation at 5 to 40 uM by fluorescence based EtBr-displacement assay; type: nucleic-acid assay; conditions: Bos taurus; dose 5-40 µM
[12] = test system: T47D; assay: Antiproliferative activity against human T47D cells after 72 hrs by EZ-Cytox colorimetric assay; type: functional, cell-based
[13] = test system: HCT-15; assay: Synergistic antiproliferative activity against human HCT-15 cells at 5 uM in presence of 0.2 uM etoposide after 72 hrs by WST-1 assay; type: functional, cell-based

Chain of DNA topoisomerase 2-alpha (Homo sapiens) (P11388 whole entry): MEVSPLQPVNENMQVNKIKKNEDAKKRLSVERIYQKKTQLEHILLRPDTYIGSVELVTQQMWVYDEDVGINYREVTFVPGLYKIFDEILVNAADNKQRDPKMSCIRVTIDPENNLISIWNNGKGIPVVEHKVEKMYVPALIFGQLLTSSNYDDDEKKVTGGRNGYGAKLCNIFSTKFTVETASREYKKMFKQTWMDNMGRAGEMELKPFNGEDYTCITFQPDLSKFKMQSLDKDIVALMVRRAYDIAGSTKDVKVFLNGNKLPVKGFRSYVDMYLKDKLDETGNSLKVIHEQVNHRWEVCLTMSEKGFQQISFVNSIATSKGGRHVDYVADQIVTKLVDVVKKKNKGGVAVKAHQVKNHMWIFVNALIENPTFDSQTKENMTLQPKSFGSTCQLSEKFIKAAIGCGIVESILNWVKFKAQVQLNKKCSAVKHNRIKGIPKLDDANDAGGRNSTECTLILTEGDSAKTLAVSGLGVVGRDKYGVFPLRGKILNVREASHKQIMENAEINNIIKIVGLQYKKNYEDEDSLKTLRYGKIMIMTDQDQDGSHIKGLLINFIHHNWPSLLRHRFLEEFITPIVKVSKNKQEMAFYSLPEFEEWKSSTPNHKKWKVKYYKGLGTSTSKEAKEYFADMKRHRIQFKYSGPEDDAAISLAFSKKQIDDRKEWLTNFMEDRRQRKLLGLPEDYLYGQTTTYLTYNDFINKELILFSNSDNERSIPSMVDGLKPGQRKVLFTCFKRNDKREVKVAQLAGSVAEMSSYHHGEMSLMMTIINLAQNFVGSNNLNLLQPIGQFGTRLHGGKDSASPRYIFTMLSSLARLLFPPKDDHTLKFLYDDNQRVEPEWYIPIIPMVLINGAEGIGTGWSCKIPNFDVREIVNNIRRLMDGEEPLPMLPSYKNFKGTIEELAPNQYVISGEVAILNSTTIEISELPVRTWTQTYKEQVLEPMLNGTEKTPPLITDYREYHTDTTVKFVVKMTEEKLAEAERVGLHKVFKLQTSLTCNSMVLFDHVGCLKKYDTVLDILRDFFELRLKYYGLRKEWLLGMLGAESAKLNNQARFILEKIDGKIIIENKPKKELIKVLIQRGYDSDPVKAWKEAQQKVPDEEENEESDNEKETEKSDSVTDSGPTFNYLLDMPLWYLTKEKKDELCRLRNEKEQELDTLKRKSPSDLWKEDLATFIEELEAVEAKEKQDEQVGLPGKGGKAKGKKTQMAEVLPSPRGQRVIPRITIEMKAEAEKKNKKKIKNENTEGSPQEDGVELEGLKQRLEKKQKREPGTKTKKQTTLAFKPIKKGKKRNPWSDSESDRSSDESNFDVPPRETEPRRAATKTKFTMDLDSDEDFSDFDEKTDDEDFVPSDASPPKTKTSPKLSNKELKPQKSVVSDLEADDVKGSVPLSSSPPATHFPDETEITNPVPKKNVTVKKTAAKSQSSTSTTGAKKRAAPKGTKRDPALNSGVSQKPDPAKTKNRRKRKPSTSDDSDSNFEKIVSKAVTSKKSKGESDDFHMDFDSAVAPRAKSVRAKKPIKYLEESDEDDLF

inhibition [3]: 85.8%
inhibition [6]: 87%
Activity [11]: Active
Structure (SMILES): O=C1c2ccccc2-c2nc(-c3ccc(Br)cc3)cc(-c3ccccc3)c21
Activity [1]: Non-Toxic
Activity [2]: Non-Toxic
Activity [4]: Non-Toxic
IC50 [5]: > 50 µM
Activity [7]: Non-Toxic
Activity [8]: Non-Toxic
Activity [9]: Non-Toxic
Activity [10]: Non-Toxic
IC50 [12]: 32.7 µM
Activity [13]: Active
